{"source": "patent US20100003191A1", "about": "“AURONE DERIVATIVE-CONTAINING COMPOSITION FOR DIAGNOSIS” (NAGASAKI UNIVERSITY, priority 2006, published 2010)", "test": "In vivo radioactivity biodistribution experiment in normal mice (Example 1, Table 13)", "design": "species or system ddY mice", "description": "^125I-labeled compounds were diluted with 10% ethanol-containing physiological saline. […] After their blood was collected, organs were removed, and the weights and radioactivities thereof were measured.\nWhen any of the aurone derivatives was used, sufficient radioactivity to perform imaging of intracerebral amyloid migrated to the brain from the early stage of injection (1.7-4.6% ID/g). […] It was also shown that, in any of the aurone derivatives, in vivo radioactivity behavior is discharged mainly from the liver to the bile duct and the intestinal tract.", "data": [{"compound": "O=C1/C(=C/c2ccc(O)cc2)Oc2ccc([125I])cc21", "note": "[[^125I]20]", "values": [{"measurement": "Biodistribution of radioactivity, Blood", "setting": "2 min after injection", "result": "3.14 (0.73) % injected dose per gram"}, {"measurement": "Biodistribution of radioactivity, Blood", "setting": "10 min after injection", "result": "2.77 (0.28) % injected dose per gram"}, {"measurement": "Biodistribution of radioactivity, Blood", "setting": "30 min after injection", "result": "1.75 (0.38) % injected dose per gram"}, {"measurement": "Biodistribution of radioactivity, Blood", "setting": "60 min after injection", "result": "0.87 (0.28) % injected dose per gram"}, {"measurement": "Biodistribution of radioactivity, Brain", "setting": "2 min after injection", "result": "3.07 (0.39) % injected dose per gram"}, {"measurement": "Biodistribution of radioactivity, Brain", "setting": "10 min after injection", "result": "1.48 (0.19) % injected dose per gram"}, {"measurement": "Biodistribution of radioactivity, Brain", "setting": "30 min after injection", "result": "0.37 (0.07) % injected dose per gram"}, {"measurement": "Biodistribution of radioactivity, Brain", "setting": "60 min after injection", "result": "0.14 (0.12) % injected dose per gram"}, {"measurement": "Biodistribution of radioactivity, Heart", "setting": "2 min after injection", "result": "6.23 (0.63) % injected dose per gram"}, {"measurement": "Biodistribution of radioactivity, Heart", "setting": "10 min after injection", "result": "2.57 (0.41) % injected dose per gram"}, {"measurement": "Biodistribution of radioactivity, Heart", "setting": "30 min after injection", "result": "0.98 (0.14) % injected dose per gram"}, {"measurement": "Biodistribution of radioactivity, Heart", "setting": "60 min after injection", "result": "0.42 (0.09) % injected dose per gram"}, {"measurement": "Biodistribution of radioactivity, Intestine", "setting": "2 min after injection", "result": "2.11 (0.75) % injected dose per gram"}, {"measurement": "Biodistribution of radioactivity, Intestine", "setting": "10 min after injection", "result": "6.12 (0.83) % injected dose per gram"}, {"measurement": "Biodistribution of radioactivity, Intestine", "setting": "30 min after injection", "result": "12.67 (2.13) % injected dose per gram"}, {"measurement": "Biodistribution of radioactivity, Intestine", "setting": "60 min after injection", "result": "14.87 (5.42) % injected dose per gram"}, {"measurement": "Biodistribution of radioactivity, Kidney", "setting": "2 min after injection", "result": "11.08 (2.96) % injected dose per gram"}, {"measurement": "Biodistribution of radioactivity, Kidney", "setting": "10 min after injection", "result": "11.22 (2.26) % injected dose per gram"}, {"measurement": "Biodistribution of radioactivity, Kidney", "setting": "30 min after injection", "result": "5.82 (1.11) % injected dose per gram"}, {"measurement": "Biodistribution of radioactivity, Kidney", "setting": "60 min after injection", "result": "2.43 (1.04) % injected dose per gram"}, {"measurement": "Biodistribution of radioactivity, Liver", "setting": "2 min after injection", "result": "6.05 (1.49) % injected dose per gram"}, {"measurement": "Biodistribution of radioactivity, Liver", "setting": "10 min after injection", "result": "6.63 (1.08) % injected dose per gram"}, {"measurement": "Biodistribution of radioactivity, Liver", "setting": "30 min after injection", "result": "4.23 (0.63) % injected dose per gram"}, {"measurement": "Biodistribution of radioactivity, Liver", "setting": "60 min after injection", "result": "4.45 (3.14) % injected dose per gram"}, {"measurement": "Biodistribution of radioactivity, Lung", "setting": "2 min after injection", "result": "6.69 (0.86) % injected dose per gram"}, {"measurement": "Biodistribution of radioactivity, Lung", "setting": "10 min after injection", "result": "3.14 (0.23) % injected dose per gram"}, {"measurement": "Biodistribution of radioactivity, Lung", "setting": "30 min after injection", "result": "1.62 (0.22) % injected dose per gram"}, {"measurement": "Biodistribution of radioactivity, Lung", "setting": "60 min after injection", "result": "0.80 (0.19) % injected dose per gram"}, {"measurement": "Biodistribution of radioactivity, Pancreas", "setting": "2 min after injection", "result": "5.28 (0.99) % injected dose per gram"}, {"measurement": "Biodistribution of radioactivity, Pancreas", "setting": "10 min after injection", "result": "2.65 (0.64) % injected dose per gram"}, {"measurement": "Biodistribution of radioactivity, Pancreas", "setting": "30 min after injection", "result": "0.92 (0.19) % injected dose per gram"}, {"measurement": "Biodistribution of radioactivity, Pancreas", "setting": "60 min after injection", "result": "0.36 (0.09) % injected dose per gram"}, {"measurement": "Biodistribution of radioactivity, Spleen", "setting": "2 min after injection", "result": "2.18 (0.48) % injected dose per gram"}, {"measurement": "Biodistribution of radioactivity, Spleen", "setting": "10 min after injection", "result": "1.36 (0.15) % injected dose per gram"}, {"measurement": "Biodistribution of radioactivity, Spleen", "setting": "30 min after injection", "result": "0.69 (0.14) % injected dose per gram"}, {"measurement": "Biodistribution of radioactivity, Spleen", "setting": "60 min after injection", "result": "0.42 (0.02) % injected dose per gram"}, {"measurement": "Biodistribution of radioactivity, Stomach", "setting": "2 min after injection", "result": "1.30 (0.43) % injected dose per organ"}, {"measurement": "Biodistribution of radioactivity, Stomach", "setting": "10 min after injection", "result": "2.53 (0.97) % injected dose per organ"}, {"measurement": "Biodistribution of radioactivity, Stomach", "setting": "30 min after injection", "result": "2.82 (1.88) % injected dose per organ"}, {"measurement": "Biodistribution of radioactivity, Stomach", "setting": "60 min after injection", "result": "2.26 (0.88) % injected dose per organ"}]}]}
